Test results taken from patent publication US8058242B2, “Chimeric proteins with natriuretic activity” (The University of Queensland, priority 2004, dated 2011).
“And” between values parts separate entries of the source, which are not always exact repeats. Identical values can stand only once. Positions of bridges follow the written chain, without caps; N, C: chain ends. Residues, ends and D or L forms follow the SMILES beside them.

Assays:
[1] = molecular target: T1, Plasmin (Homo sapiens, UniProt P00747); test: Stability to enzymatic degradation by plasmin (Examples 7, 16); assay type: in vitro ADME; settings: plasmin, 37° C.; for half-life at 125 μM: plasmin in Tris/HCl-NaCl buffer, read-out: HalfLife in plasmin
T1 construct: with 500 ng Endopeptidase (NEP) or 10 μg Plasmin
Protocol: The incubation buffer contained 100 mM Tris/HCl and 150 mM NaCl and the pH was adjusted to 7.2-7.4. In each assay, 100 μl of peptide [500 μM] was incubated with 300 μl buffer (with 500 ng Endopeptidase (NEP) or 10 μg Plasmin) at 37° C. 50 μl aliquots were taken at times 5 min, 30 min, 60 min, 90 min, 180 min and 24 h. The reaction was quenched by heating to 100° C. for 4 min and the remaining peptide concentrations measured by RP-HPLC. Note that the levels of Plasmin required to degrade these peptides was several thousands time the levels present in human plasma.
The stability of TDT and was investigated using the same enzymatic degradation assays (NEP, plasmin, pepsin) disclosed in Example 7. […] It is also evident that the increased NEP stability cannot be explained by the length of the tail region alone as the NEP cleavage site residues at the N-terminal end of the loop region.

[2] = molecular target: T2, Natriuretic Peptide Receptor-A (NPR-A) signaling in MDCK cells (Canis lupus familiaris, UniProt A0A8I3MHU3); assay type: cell-based, canine; settings: stimulation of cGMP accumulation in MDCK cells
T2 sequence (A0A8I3MHU3 32-1060): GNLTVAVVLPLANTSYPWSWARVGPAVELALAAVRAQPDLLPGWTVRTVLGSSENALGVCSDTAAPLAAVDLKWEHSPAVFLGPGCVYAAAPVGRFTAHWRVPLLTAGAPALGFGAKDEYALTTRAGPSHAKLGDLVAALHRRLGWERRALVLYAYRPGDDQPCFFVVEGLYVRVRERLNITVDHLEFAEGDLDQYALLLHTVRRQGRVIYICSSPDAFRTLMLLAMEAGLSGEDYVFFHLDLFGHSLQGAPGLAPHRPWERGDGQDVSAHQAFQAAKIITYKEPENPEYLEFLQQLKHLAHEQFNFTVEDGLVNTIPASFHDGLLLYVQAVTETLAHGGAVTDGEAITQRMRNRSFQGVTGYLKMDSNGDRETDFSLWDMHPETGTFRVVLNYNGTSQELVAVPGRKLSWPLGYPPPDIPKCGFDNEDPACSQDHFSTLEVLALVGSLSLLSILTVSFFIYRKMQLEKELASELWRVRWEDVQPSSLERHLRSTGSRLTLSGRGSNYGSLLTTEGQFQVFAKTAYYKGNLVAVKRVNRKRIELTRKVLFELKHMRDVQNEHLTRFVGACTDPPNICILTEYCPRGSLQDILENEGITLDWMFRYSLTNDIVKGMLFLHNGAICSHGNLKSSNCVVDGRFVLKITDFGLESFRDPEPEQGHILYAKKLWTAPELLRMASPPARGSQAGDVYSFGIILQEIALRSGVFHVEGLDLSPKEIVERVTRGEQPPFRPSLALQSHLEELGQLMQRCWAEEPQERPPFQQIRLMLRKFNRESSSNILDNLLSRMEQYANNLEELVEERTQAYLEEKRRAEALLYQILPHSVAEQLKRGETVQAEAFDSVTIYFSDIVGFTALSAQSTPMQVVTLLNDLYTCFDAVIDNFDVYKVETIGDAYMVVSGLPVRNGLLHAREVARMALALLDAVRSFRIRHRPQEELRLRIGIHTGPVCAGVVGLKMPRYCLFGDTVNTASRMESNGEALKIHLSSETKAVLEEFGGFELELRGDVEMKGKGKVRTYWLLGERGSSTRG

[3] = tested on: endothelium-denuded aortic rings (GC-A mediated); test: Aortic ring relaxation, endothelium-denuded rings pre-contracted with 40 mM KCl (Example 3); parameters: species or system rat; settings: endothelium-denuded rat aortas pre-contracted with 40 mM KCl; peptide 0.1 μM
Protocol: (§1) Male Sprague Dawley rats were killed and the descending thoracic aorta rapidly removed and flushed with physiological solution. After being cleared of adhering fat and connective tissue, 5 mm rings were mounted under 10 g resting tension, between two stainless steel hooks, in organ baths (37° C.) containing carbogenated (95% O2 and 5% CO2) physiological salt solution of the following composition (mM): NaCl, 118.4; NaHCO3, 25; glucose, 11; KCl, 4.7; MgSO4, 1.2; KH2PO4, 1.2 and CaCl2, 2.5. The lower hook was attached to a tissue holder and the upper hook to a force displacement transducer (Grass FTO3). Where indicated endothelial cells were removed by gentle rubbing of the intimal surface with a wire. To confirm the presence or absence of endothelial cells, tissues were precontracted with a sub-maximal concentration of phenylephrine (0.3 μM) and the response to acetylcholine (ACh, 10 μM) observed. Ach-induced relaxation greater than 80% of maximum indicated the presence of endothelium; whereas Ach-induced relaxation less than 10% indicated the absence of endothelium. Ring preparations under resting tension were conditioned by two contraction/relaxation cycles with 40 mM KCl, contracted by a third application of 40 mM KCl and then relaxed with different doses of the venom peptides. Responses were expressed as a percentage relaxation of the precontraction by KCl.

[4] = tested on: endothelium-intact aortic rings (NPR-C mediated); test: Aortic ring relaxation, endothelium-intact rings pre-contracted with 40 mM KCl (Example 3); parameters: species or system rat; settings: endothelium-intact rat aortas pre-contracted with 40 mM KCl; peptide 0.1 μM
Protocol: as §1

[5] = tested on: conscious rabbits; test: Blood pressure and heart rate in conscious rabbits, intravenous infusion dose-response (Example 8); settings: for Diastolic BP, Average Response SED / HR, Average Response SED / Mean BP (MAP), Average Response SED / Systolic BP, Average Response SED: average of the 3 doses 1.0, 2.0, 4.0 μg/kg/min; for Diastolic BP, mean difference from control / HR, mean difference from control / Mean BP, mean difference from control / Systolic BP, mean difference from control: 45 min
[6] = after 1 hour recovery period, Table 10A

T1 sequence (P00747 97-580 partner limits assumed, species assumed): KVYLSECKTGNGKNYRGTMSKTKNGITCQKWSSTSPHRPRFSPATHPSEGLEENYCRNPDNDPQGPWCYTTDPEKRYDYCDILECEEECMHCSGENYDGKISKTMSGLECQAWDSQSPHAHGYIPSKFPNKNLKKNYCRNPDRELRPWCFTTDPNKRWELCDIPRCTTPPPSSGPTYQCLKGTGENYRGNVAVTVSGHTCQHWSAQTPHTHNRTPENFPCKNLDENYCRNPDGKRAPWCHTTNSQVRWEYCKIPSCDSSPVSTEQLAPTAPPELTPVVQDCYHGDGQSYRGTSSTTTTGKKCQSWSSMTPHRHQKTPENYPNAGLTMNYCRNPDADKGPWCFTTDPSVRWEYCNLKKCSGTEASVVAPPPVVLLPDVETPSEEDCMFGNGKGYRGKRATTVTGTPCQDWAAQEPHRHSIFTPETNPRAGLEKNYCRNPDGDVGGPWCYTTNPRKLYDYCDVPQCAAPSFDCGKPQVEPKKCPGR
T1 sequence (P00747 581-810 limits assumed, species assumed): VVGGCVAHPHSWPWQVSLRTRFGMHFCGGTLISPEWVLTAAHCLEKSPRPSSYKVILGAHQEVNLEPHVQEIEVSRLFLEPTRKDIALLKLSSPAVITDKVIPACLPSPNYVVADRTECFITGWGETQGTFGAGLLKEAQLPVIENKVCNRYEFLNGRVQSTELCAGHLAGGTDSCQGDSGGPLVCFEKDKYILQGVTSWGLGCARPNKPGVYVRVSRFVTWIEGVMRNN

Row | SMILES | half-life at 125 μM [1] [min] | K (one phase exponential decay, best fit values) [1] | PLATEAU (one phase exponential decay, best fit values) [1] | SPAN (one phase exponential decay, best fit values) [1] | −Log10 EC50 (pEC50) ± Standard Error [2] | percentage relaxation of the precontraction by KCl [3] [%] | percentage relaxation of the precontraction by KCl [4] [%] | Recovery (MAP) [5, 6] | Diastolic BP, Average Response SED [5] [mmHg] | HR, Average Response SED [5] [bpm] | Mean BP (MAP), Average Response SED [5] [mmHg] | Systolic BP, Average Response SED [5] [mmHg] | MAP at final dose ([5]; highest dose, Table 10A) | Diastolic BP, mean difference from control ([5]; i.v. infusion 1.0 μg/kg/min) [mmHg] | HR, mean difference from control ([5]; i.v. infusion 1.0 μg/kg/min) [bpm] | Mean BP, mean difference from control ([5]; i.v. infusion 1.0 μg/kg/min) [mmHg] | Systolic BP, mean difference from control ([5]; i.v. infusion 1.0 μg/kg/min) [mmHg] | Diastolic BP, mean difference from control ([5]; i.v. infusion 2.0 μg/kg/min) [mmHg] | HR, mean difference from control ([5]; i.v. infusion 2.0 μg/kg/min) [bpm] | Mean BP, mean difference from control ([5]; i.v. infusion 2.0 μg/kg/min) [mmHg] | further results
1 | CC[C@H](C)[C@@H]1NC(=O)[C@H](CCCCN)NC(=O)[C@H](Cc2c[nH]cn2)NC(=O)CNC(=O)[C@H](Cc2ccccc2)NC(=O)[C@@H](NC(=O)[C@@H]2CCCN2C(=O)[C@H](CC(=O)O)NC(=O)[C@H](Cc2ccc(O)cc2)NC(=O)[C@H](CCCCN)NC(=O)[C@@H](NC(=O)[C@@H](N)CCC(=O)O)C(C)C)CSSC[C@@H](C(=O)N2CCC[C@H]2C(=O)N[C@@H](CO)C(=O)N[C@@H](CC(C)C)C(=O)N[C@@H](CCCNC(=N)N)C(=O)N[C@@H](CC(=O)O)C(=O)N2CCC[C@H]2C(=O)N[C@@H](CCCNC(=N)N)C(=O)N2CCC[C@H]2C(=O)N[C@@H](CC(N)=O)C(=O)N[C@@H](C)C(=O)N2CCC[C@H]2C(=O)N[C@@H](CO)C(=O)N[C@H](C(=O)N[C@@H](CO)C(=O)N[C@@H](C)C(=O)O)[C@@H](C)O)NC(=O)CNC(=O)[C@H](CC(C)C)NC(=O)[C@H](CC(N)=O)NC(=O)[C@H](CO)NC(=O)[C@H](C(C)C)NC(=O)[C@H](Cc2c[nH]cn2)NC(=O)[C@H](CC(N)=O)NC(=O)[C@H]([C@@H](C)CC)NC(=O)[C@H](CCCNC(=N)N)NC(=O)[C@H](CC(=O)O)NC1=O [DNP, reference compound] (H-EVKYDPCFGHKIDRINHVSNLGCPSLRDPRPNAPSTSA-OH; disulfide 7-23; N-terminus and C-terminus assumed) | 29.1 | 0.02381 | 0.1675 | 0.7306 | 8.080 ± 1.411 | ~100 | ~100 | 61.4 mm Hg | −9.0 ± 0.9 | 17.3 ± 6.4 | −14.2±0.8 | −13.3 ± 0.8 | 58.9 mm Hg | −8.5 | 17.5 | −13.0 | −11.7 | −6.9 | 25.9 | −12.6 | Recovery Delta SED (MAP) [5, 6]: 2.5 ± 1.1 mm Hg; Treatment Effect, change of mean blood pressure during the infusion ([5]; highest dose, Table 10A, groups 1, 2A and 3): −17.2 mm Hg; Systolic BP, mean difference from control ([5]; i.v. infusion 2.0 μg/kg/min): −11.9 mmHg; Diastolic BP, mean difference from control ([5]; i.v. infusion 4.0 μg/kg/min): −11.7 mmHg; HR, mean difference from control ([5]; i.v. infusion 4.0 μg/kg/min): 8.5 bpm; Mean BP, mean difference from control ([5]; i.v. infusion 4.0 μg/kg/min): −17.2 mmHg; Systolic BP, mean difference from control ([5]; i.v. infusion 4.0 μg/kg/min): −16.4 mmHg
2 | CC[C@H](C)[C@H](NC(=O)[C@H](CCCCN)NC(=O)[C@H](CO)NC(=O)[C@H](CC(=O)O)NC(=O)[C@@H](N)CO)C(=O)NCC(=O)N[C@@H](CC(N)=O)C(=O)NCC(=O)N[C@H]1CSSC[C@@H](C(=O)N[C@@H](CC(N)=O)C(=O)N[C@@H](CCCNC(=N)N)C(=O)N[C@H](C(=O)N[C@@H](CCSC)C(=O)N[C@@H](CCC(N)=O)C(=O)N[C@@H](CC(N)=O)C(=O)N2CCC[C@H]2C(=O)N2CCC[C@H]2C(=O)N[C@@H](CCCCN)C(=O)N[C@@H](CCCCN)C(=O)N[C@@H](Cc2ccccc2)C(=O)N[C@@H](CO)C(=O)NCC(=O)N[C@@H](CCC(=O)O)C(=O)O)[C@@H](C)CC)NC(=O)CNC(=O)[C@H](CC(C)C)NC(=O)CNC(=O)[C@H](CO)NC(=O)[C@H](C(C)C)NC(=O)[C@H](CO)NC(=O)CNC(=O)[C@H]([C@@H](C)CC)NC(=O)[C@H](CCCNC(=N)N)NC(=O)[C@H](CC(=O)O)NC(=O)[C@H](CC(C)C)NC(=O)[C@@H]2CCCN2C(=O)[C@H](Cc2ccccc2)NC(=O)CNC(=O)[C@H](Cc2ccccc2)NC1=O [TNPc] (H-SDSKIGNGCFGFPLDRIGSVSGLGCNRIMQNPPKKFSGE-OH; disulfide 9-25) | 23.6 | 0.02935 | 0.1128 | 0.8454 | 6.928 ± 0.1122 | ~100 | ~100 | 56.6 mm Hg and 58.8 mm Hg | −12.5 ± 0.6 | 4.7 ± 3.8 | −14.9±0.7 | −13.2 ± 0.8 | 56.1 mm Hg and 58.9 mm Hg | −10.0 | −3.5 | −11.0 | −9.1 | −14.7 | 3.7 | −17.7 | EC50 ([2]; read-out: EC50 (M) ± Standard Error): 1.84e-07 M; recovery of MAP, in words ([5]; 2 hours after infusion): remained suppressed for 2 hours; MAP at final dose ([5]; Table 10B): 58.9 mm Hg and 61.3 mm Hg; Recovery (MAP) ([5]; after a 2 hour recovery period, Table 10B): 58.8 mm Hg and 66.1 mm Hg; effective half life compared to BNP ([5]; bolus injection): 3 fold; time taken to recover to 50% of the peak response ([5]; bolus injection of 0.24 mg/kg TNPc or equivalent molar dose of BNP): 225 min; Systolic BP, mean difference from control ([5]; i.v. infusion 2.0 μg/kg/min): −15.6 mmHg; Diastolic BP, mean difference from control ([5]; i.v. infusion 4.0 μg/kg/min): −12.8 mmHg; HR, mean difference from control ([5]; i.v. infusion 4.0 μg/kg/min): 13.8 bpm; Mean BP, mean difference from control ([5]; i.v. infusion 4.0 μg/kg/min): −15.9 mmHg; Systolic BP, mean difference from control ([5]; i.v. infusion 4.0 μg/kg/min): −14.9 mmHg; recovery of MAP from the hypotension, in words ([5]; one hour after the end of infusion): MAP had not changed
